What was measured:
THIK-1 channel [1] = biological target: T1, THIK-1 channel (Mus musculus, UniProt Q8R1P5); experiment: Effect of DAG analogue on THIK-1 channel current (I10th/I0); format: cell-based; conditions: 50 sec after application
T1 construct: expressed in transfected cells; host or cells: HEK293T
T1 sequence (Q8R1P5 1-405): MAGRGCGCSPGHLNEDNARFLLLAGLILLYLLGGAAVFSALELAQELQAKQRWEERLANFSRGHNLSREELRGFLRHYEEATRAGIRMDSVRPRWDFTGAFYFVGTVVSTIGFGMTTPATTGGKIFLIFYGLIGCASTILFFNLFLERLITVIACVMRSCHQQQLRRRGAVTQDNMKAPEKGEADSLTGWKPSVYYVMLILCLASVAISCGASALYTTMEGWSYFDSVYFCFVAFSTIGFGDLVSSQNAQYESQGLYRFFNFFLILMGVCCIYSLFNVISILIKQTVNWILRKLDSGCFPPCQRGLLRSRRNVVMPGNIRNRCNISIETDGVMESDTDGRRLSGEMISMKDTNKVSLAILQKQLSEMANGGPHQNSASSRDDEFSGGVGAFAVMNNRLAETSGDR
Source text: (§1) Pertussis toxin (PTX) was purchased from Wako (Osaka, Japan).
Fig 5 Effects of OAG on THIK-1 channel current. (A) Current and membrane potential relationships before and after application of OAG. Ramp pulses were applied ever 5 sec before and after application of OAG. The current and membrane potential relationships before (black) and 50 sec after application of the indicated concentration of OAG (red) are shown. (B) Effects of OAG on THIK-1 channel. Circles indicate the ratio of the current amplitudes after application of OAG or DMSO to the amplitudes before application of them (I10th/I0). Mean and S.D. are shown as bars (n = 8–12). n.s.: p> 0.05.

ΔN-THIK-2 channel = biological target: T2, ΔN-THIK-2 channel (Mus musculus, UniProt F6UVE5); experiment: Effect of DAG analogue on ΔN-THIK-2 channel current (I10th/I0) in CHO-K1 cells; format: cell-based; conditions: 10 and 30 μM
T2 construct: expressed in transfected cells; host or cells: CHO-K1
T2 sequence (F6UVE5 with tags, fused parts or gaps): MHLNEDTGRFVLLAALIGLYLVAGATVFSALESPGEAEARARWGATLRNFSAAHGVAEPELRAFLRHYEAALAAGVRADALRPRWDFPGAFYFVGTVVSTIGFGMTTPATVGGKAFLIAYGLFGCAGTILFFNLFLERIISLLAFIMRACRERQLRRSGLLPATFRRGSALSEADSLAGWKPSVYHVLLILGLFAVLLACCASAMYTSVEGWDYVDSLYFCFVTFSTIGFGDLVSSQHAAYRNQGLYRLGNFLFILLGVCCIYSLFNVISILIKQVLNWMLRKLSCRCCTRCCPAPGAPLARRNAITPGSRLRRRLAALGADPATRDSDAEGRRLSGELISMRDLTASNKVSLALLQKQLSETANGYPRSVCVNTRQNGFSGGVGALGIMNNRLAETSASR
Source text: as §1
Fig 7 Effect of C-Ala mutation or OAG on ΔN-THIK-2 channel. (A) Current-voltage relationships before and after stimulation of mGlu2. […]. (B) Effects of the mGlu2 activation on the ΔN-THIK-2 and C-Ala mutants. […]. Mean and S.D. are shown as bars (n = 11–12). (C) Current-voltage relationships before and after application of OAG. The current-voltage relationships before and 50 sec after application of OAG are shown (black and red lines, respectively). The tested concentration of OAG was 10 μM (left) and 30 μM (right). (D) Effects of OAG on the ΔN-THIK-2 channel. The ratio (I10th/I0) are not different between OAG applied group (filled circles) and vehicle applied group (open circles). Mean and S.D. are shown as bars (n = 7–11). **: 0.001<p≤ 0.01, n.s.: p> 0.05.

[2] = test system: endogenously expressed channels in HEK293T cells; experiment: Effect of receptor stimulation on the endogenous current in HEK293T cells without THIK-1; format: cell-based
Source text: The amplitude of the current increase at the 15th trace (ΔI15th) after the application of GABA or oxo-M were normalized to that at the 5th traces (ΔI5th) with or without additional activation of A2aR (ΔI15th/ΔI5th).
The current density at 0 mV (I0) in HEK293T cell transfected with indicated receptors and the effects of the receptor stimulation are shown as Mean and S.D.

mGlu2 = biological target: T3, mGlu2 (Rattus norvegicus, UniProt P31421); experiment: mGlu2-induced increase of THIK-1 channel current, whole cell patch clamp in HEK293T cells; format: cell-based; conditions: concentration response of THIK-1 current increase
T3 construct: expressed in transfected cells; host or cells: HEK293T
Source text: (§2) Coding region of mGu2 (M1-P840) was amplified by conventional PCR with designed primers and the resulting product was subcloned into pEYFP-N1 vector at the BglII and EcoRI sites. The cDNAs for mouse THIK-2 channel and dimeric THIK channels were subcloned into pcDNA3.1(-) vector. To increase the surface membrane expression of the THIK-2 channel, 29 residues (Ser2-Ser30) were removed (ΔN-THIK-2). […] Ci-VSP-IRES-GFP vector was kindly gifted by Dr. Y. Okamura (Osaka University, Osaka, Japan). HEK293T cells or CHO-K1 cells were seeded on glasses and transfected with the plasmid DNAs for THIK channels, receptors and a transfection marker of yellow fluorescent protein (YFP). Electrophysiological experiments were performed 24–72 h after the transfection. […] Pertussis toxin (PTX) was purchased from Wako (Osaka, Japan). […] All reagents were dissolved at high concentration and stored at -20 °C as the stock solutions. The stock reagent solution was diluted at concentrations for the electrophysiological experiments. […]
(§3) The amplitude of the THIK-1 channel current at 0 mV was measured from every trace induced by the ramp pulse protocol to minimize the fraction of non-selective cationic leak current. […] The effects of GPCRs on the THIK-1 channel were evaluated as the ratio of the current amplitude after the agonist application to I0 (Iagonist/I0). […]

[3] = biological target: T4, mGlu2-YFP / ΔN-THIK-2 channel (Rattus norvegicus, UniProt P31421); experiment: mGlu2-YFP-induced increase of ΔN-THIK-2 channel current in CHO-K1 cells; format: cell-based, mouse; conditions: PTX treated cells, glutamate 200 μM
T4 construct: Coding region of mGu2 (M1-P840) was amplified by conventional PCR; expressed in transfected cells; host or cells: CHO-K1
Source text: as §2, with “experiments. PTX was solved in the culture medium (final concentration, 300 ng/mL) and cells were incubated in it for more than 16 h. U73122 or U73343 (final concentration, 2 μM each) was dissolved in Hanks’ Balanced Salt Solution (HBSS, Invitrogen, Carlsbad, CA, USA) supplemented with 1 mM Ca^2+ and 0.3 mM Mg^2+.” for “experiments.”

THIK-1 channel [4] = experiment: Basal current (I0) density of THIK-1 channel at 0 mV in HEK293T cells; format: cell-based; conditions: 0 mV, before agonist
Source text: Coding region of mGu2 (M1-P840) was amplified by conventional PCR with designed primers and the resulting product was subcloned into pEYFP-N1 vector at the BglII and EcoRI sites. The cDNAs for mouse THIK-2 channel and dimeric THIK channels were subcloned into pcDNA3.1(-) vector. To increase the surface membrane expression of the THIK-2 channel, 29 residues (Ser2-Ser30) were removed (ΔN-THIK-2). […] Ci-VSP-IRES-GFP vector was kindly gifted by Dr. Y. Okamura (Osaka University, Osaka, Japan). HEK293T cells or CHO-K1 cells were seeded on glasses and transfected with the plasmid DNAs for THIK channels, receptors and a transfection marker of yellow fluorescent protein (YFP). Electrophysiological experiments were performed 24–72 h after the transfection. […] Pertussis toxin (PTX) was purchased from Wako (Osaka, Japan). […] All reagents were dissolved at high concentration and stored at -20 °C as the stock solutions. The stock reagent solution was diluted at concentrations for the electrophysiological experiments. PTX was solved in the culture medium (final concentration, 300 ng/mL) and cells were incubated in it for more than 16 h. U73122 or U73343 (final concentration, 2 μM each) was dissolved in Hanks’ Balanced Salt Solution (HBSS, Invitrogen, Carlsbad, CA, USA) supplemented with 1 mM Ca^2+ and 0.3 mM Mg^2+. Cells were incubated in HBSS with U73122 or U73343 for 10 min at room temperature before the whole cell current recording.
Composition of bath solution was (in mM) 140 NaCl, 4 KCl, 1 CaCl2, 0.3 MgCl2, 10 HEPES (pH 7.4 adjusted with NaOH). The pipette solution for whole cell patch clamp experiments contained (mM) 130 KCl, 5 Na2-ATP, 3 EGTA, 0.1 CaCl2, 10 HEPES, 4 MgCl2, (pH 7.3 adjusted with KOH). GTP (0.3 mM) was supplemented in the pipette solution. Once the whole cell configuration was established, the cell was held at -80mV and ramp pulses (-120mV to +40mV for 0.4 sec) were applied every 5 sec. Various concentrations of the agonists were applied using a fast perfusion system (VC77SP, Warner Instruments, Hamden, CT, USA). The PKC inhibitor chelerythrine was included in the pipette solution.
The amplitude of the THIK-1 channel current at 0 mV was measured from every trace induced by the ramp pulse protocol to minimize the fraction of non-selective cationic leak current. The current amplitude before the agonist application was set as the basal current amplitude (I0). The effects of GPCRs on the THIK-1 channel were evaluated as the ratio of the current amplitude after the agonist application to I0 (Iagonist/I0). The EC50 values were estimated by fitting the concentration response curve to a Hill equation (Origin2016; OriginLab, Northampton, MA, USA). […] The effects of A2aR on the Gi/o-R-induced current increase of the THIK-1 channel was estimated as follows. […] All data are shown as means and S.D. The statistical significance between two or more than two groups was estimated by unpaired Student’s t-test or by a one-way analysis of variance (ANOVA) followed by Tukey’s test, respectively. […] Values of p≤ 0.05 were considered as statistically significant (***:p≤0.001, **:0.001<p≤0.01, *:0.01<p≤0.05, n.s.:p>0.05).

GABABR = biological target: T5, GABABR (Homo sapiens, UniProt Q9UBS5); experiment: GABABR-induced increase of THIK-1 channel current, whole cell patch clamp in HEK293T cells; format: cell-based; conditions: PTX 300 ng/mL, more than 16 h
T5 construct: expressed in transfected cells; host or cells: HEK293T
Source text: as §2, §3

T4 sequence (P31421 19-840, stated change not applied): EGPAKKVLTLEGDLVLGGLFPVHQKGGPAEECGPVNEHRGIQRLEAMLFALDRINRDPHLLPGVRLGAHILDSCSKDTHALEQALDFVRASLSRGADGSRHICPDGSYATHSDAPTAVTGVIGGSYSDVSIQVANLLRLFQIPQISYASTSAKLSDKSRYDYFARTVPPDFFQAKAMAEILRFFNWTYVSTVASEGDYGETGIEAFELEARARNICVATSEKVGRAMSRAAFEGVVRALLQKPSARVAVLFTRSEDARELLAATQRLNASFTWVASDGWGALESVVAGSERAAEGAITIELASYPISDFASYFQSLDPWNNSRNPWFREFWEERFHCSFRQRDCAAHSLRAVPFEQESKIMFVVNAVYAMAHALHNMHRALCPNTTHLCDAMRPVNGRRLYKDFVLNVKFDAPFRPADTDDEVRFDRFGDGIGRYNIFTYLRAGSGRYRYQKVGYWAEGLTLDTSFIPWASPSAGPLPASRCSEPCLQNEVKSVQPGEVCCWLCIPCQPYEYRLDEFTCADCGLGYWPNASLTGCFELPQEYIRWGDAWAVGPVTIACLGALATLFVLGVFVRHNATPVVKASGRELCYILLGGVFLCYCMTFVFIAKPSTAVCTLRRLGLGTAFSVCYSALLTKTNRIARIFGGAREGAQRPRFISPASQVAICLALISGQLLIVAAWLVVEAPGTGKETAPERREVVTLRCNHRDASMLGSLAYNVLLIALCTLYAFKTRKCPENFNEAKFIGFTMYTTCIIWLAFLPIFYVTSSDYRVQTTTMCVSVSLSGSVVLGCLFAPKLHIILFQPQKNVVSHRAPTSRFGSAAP
T5 sequence (Q9UBS5 15-961 limits assumed): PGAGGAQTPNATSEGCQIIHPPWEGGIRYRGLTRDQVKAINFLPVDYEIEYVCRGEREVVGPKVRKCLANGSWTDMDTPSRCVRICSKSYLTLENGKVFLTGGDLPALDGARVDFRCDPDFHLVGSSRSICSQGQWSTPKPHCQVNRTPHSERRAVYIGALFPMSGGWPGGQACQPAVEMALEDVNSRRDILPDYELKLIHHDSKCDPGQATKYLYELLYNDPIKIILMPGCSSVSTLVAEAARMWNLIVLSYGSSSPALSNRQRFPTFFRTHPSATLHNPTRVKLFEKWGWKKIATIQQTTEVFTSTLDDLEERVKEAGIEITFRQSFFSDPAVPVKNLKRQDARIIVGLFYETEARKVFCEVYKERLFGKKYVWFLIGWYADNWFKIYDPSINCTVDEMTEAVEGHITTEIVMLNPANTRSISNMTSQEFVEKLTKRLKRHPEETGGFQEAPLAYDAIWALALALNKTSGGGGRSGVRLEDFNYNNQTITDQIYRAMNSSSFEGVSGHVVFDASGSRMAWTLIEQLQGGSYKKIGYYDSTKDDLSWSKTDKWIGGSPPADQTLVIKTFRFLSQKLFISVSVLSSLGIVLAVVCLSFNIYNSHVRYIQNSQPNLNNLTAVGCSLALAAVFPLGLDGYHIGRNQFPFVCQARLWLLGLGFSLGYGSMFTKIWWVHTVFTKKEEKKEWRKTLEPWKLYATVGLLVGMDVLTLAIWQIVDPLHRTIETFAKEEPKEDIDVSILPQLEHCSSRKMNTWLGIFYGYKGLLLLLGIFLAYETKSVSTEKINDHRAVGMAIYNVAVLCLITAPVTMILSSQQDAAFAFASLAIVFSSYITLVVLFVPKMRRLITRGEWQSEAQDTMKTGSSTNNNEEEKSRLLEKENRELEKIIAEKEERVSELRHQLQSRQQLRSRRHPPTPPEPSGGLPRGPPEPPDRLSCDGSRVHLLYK
T5 sequence (O75899 42-941 partner): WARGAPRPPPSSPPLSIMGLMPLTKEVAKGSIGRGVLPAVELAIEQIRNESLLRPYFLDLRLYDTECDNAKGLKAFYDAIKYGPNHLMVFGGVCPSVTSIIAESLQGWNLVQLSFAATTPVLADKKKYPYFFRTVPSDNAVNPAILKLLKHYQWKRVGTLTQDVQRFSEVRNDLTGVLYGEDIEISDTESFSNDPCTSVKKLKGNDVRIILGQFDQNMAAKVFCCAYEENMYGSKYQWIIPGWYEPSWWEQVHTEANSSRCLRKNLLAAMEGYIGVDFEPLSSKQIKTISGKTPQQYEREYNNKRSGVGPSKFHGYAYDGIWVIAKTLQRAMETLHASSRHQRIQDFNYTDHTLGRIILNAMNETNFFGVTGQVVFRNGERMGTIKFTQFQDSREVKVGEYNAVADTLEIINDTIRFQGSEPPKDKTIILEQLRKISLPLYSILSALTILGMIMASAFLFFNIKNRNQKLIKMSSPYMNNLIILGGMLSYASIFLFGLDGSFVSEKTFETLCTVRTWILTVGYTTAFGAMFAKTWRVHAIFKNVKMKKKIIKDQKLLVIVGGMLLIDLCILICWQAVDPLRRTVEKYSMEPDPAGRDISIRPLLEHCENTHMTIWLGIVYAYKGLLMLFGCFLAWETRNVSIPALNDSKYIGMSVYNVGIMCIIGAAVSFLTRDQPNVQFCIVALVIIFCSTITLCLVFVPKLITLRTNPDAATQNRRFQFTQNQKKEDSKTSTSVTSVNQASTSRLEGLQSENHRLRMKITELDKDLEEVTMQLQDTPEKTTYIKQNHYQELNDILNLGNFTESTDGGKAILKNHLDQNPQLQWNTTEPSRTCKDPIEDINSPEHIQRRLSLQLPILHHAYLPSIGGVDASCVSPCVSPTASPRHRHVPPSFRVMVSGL
T3 sequence (P31421 19-872): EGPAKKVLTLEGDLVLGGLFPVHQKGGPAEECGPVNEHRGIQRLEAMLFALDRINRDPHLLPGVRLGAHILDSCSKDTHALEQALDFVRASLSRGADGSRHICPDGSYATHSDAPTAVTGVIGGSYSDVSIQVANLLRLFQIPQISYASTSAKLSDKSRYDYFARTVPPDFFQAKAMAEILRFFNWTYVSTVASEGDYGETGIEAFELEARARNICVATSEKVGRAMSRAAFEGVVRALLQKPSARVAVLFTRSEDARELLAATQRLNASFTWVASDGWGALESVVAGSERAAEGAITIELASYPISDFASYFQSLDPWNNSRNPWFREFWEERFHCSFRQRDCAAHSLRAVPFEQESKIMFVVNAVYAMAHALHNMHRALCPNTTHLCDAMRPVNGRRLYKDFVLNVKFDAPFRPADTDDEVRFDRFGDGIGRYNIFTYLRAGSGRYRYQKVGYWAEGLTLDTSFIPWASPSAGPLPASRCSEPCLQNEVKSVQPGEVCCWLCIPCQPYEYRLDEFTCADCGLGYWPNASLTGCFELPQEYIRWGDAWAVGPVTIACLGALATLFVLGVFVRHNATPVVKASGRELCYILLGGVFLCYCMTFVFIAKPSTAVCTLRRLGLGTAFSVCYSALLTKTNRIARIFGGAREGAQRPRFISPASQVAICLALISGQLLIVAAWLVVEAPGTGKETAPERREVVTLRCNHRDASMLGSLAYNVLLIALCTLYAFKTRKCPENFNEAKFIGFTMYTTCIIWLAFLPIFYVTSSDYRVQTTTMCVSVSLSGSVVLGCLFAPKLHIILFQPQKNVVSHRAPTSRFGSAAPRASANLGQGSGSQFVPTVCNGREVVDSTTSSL

CCCCCCCC/C=C\CCCCCCCC(=O)OC[C@H](CO)OC(C)=O [OAG, 1-oleoyle-2-acetyl-sn-glycerol]
increase in the amplitude of the THIK-1 channel current (I10th/I0) versus vehicle (DMSO) (THIK-1 channel [1]): not significantly different
current amplitude of ΔN-THIK-2 channel (ΔN-THIK-2 channel): did not increase the current amplitude

N[C@@H](CCC(=O)O)C(=O)O [glutamate, L-glutamate]
Effect of agonist (Iagonist/I0) ([2]; HEK293T transfected with mGlu1, no THIK-1): 0.98 ± 0.17
Effect of agonist (Iagonist/I0) ([2]; HEK293T transfected with mGlu2, no THIK-1): 0.92 ± 0.06
n; Hill coefficient (mGlu2): 1.19 ± 0.65

Pertussis toxin [PTX]
effect of mGlu2-YFP on ΔN-THIK-2 channel after inhibitor treatment [3]: inhibited
Basal current (I0) density of THIK-1 channel (THIK-1 channel [4]; THIK-1 + GABABR, + PTX (300 ng/mL)): 170.6 ± 58.2 (7)^n.s. pA/pF
Basal current (I0) density of THIK-1 channel (THIK-1 channel [4]; THIK-1 + M2R, + PTX (300 ng/mL)): 168.6 ± 141.2 (6)^n.s pA/pF
Basal current (I0) density of THIK-1 channel (THIK-1 channel [4]; THIK-1 + mGlu2, + PTX (300 ng/mL)): 281.87 ± 148.3 (5)^n.s. pA/pF
effect of GABA on the THIK-1 channel after inhibitor treatment (GABABR): not observed

From article PMC10132538, “Regulation of the two-pore domain potassium channel, THIK-1 and THIK-2, by G protein coupled receptors” (PLOS ONE, 2023)
